Measured values taken from ChEMBL document CHEMBL1122755, “Synthesis and murine antineoplastic activity of bis[(carbamoyloxy)methyl] derivatives of pyrrolo[2,1-a]isoquinoline” (1984).
The source made the active and inactive calls. No cut-off for these calls is given here.

Tests used:
Homo sapiens [1] = test: Optimum % T/C value was measured against Human MX-1 breast Xenograft at the dose of 600 mg/kg (s.c.), schedule was Q01DX03 (three doses), day 1(first dose was given, tumor was implanted on day zero); type: functional
Homo sapiens [2] = test: Optimum % T/C value was measured against Human CX-1 colon Xenograft at the dose of 300-600mg/kg, schedule was Q01DX04 (four doses), day 1(first dose was given, tumor was implanted on day zero); IA means inactive; type: functional, organism-based
Homo sapiens [3] = test: Optimum % T/C value was measured against Human LX-1 lung Xenograft at the dose of 150 mg/kg, schedule was Q01DX03, day 1; type: functional
Mus musculus [4] = test: % T/C value was measured against Murine P388 Lymphocytic Leukemia cells in CDF1 mice at the dose 100 mg/kg; toxic; type: functional, organism-based; parameters: dose 100 mg/kg
Mus musculus [5] = test: % T/C value was measured against Murine P388 Lymphocytic Leukemia cells in CDF1 mice at the dose 12.5 mg/kg; type: functional
Mus musculus [6] = test: % T/C value was measured against Murine P388 Lymphocytic Leukemia cells in CDF1 mice at the dose 200 mg/kg; toxic; type: functional, organism-based; parameters: dose 200 mg/kg
Mus musculus [7] = test: % T/C value was measured against Murine P388 Lymphocytic Leukemia cells in CDF1 mice at the dose 25 mg/kg; type: functional
Mus musculus [8] = test: % T/C value was measured against Murine P388 Lymphocytic Leukemia cells in CDF1 mice at the dose 3.13 mg/kg; type: functional
Mus musculus [9] = test: % T/C value was measured against Murine P388 Lymphocytic Leukemia cells in CDF1 mice at the dose 50 mg/kg; toxic; type: functional, organism-based; parameters: dose 50 mg/kg
Mus musculus [10] = test: % T/C value was measured against Murine P388 Lymphocytic Leukemia cells in CDF1 mice at the dose 6.25 mg/kg; type: functional
Mus musculus [11] = test: Optimum % T/C value was measured against Murine B16 melanocarcinoma cells at the dose of 12.5 mg/kg, schedule was Q01DX09, day 1; type: functional
Mus musculus [12] = test: Optimum % T/C value was measured against Murine CD8F1 mammary cells at the dose of 250 mg/kg (subcutaneous), schedule was Q01DX01 (one dose), day 21(21 dose was given, tumor was implanted on day zero); type: functional
Mus musculus [13] = test: Optimum % T/C value was measured against Murine L1210 lymphoid leukemia cells at the dose of 25 mg/kg, schedule was Q01DX09 (nine doses), day 1(first dose was given, tumor was implanted on day zero); type: functional
Mus musculus [14] = test: Optimum % T/C value was measured against Murine Lewis lung carcinoma cells at the dose of 3.12-50mg/kg, schedule was Q01DX09 (nine doses), day 1(first dose was given, tumor was implanted on day zero); inactive; type: functional, organism-based
Mus musculus [15] = test: Optimum % T/C value was measured against Murine colon 38 cells at the dose of 100 mg/kg (subcutaneous), schedule was Q01DX02 (two doses), day 2(second dose was given, tumor was implanted on day zero); type: functional, MC-38
Mus musculus [16] = test: Change in weight of P388 lymphocytic leukemia infected mice was determined when the compound was administered at dose of 12.5 mg/kg; type: functional
Mus musculus [17] = test: Change in weight of P388 lymphocytic leukemia infected mice was determined when the compound was administered at dose of 25 mg/kg; type: functional
Mus musculus [18] = test: Change in weight of P388 lymphocytic leukemia infected mice was determined when the compound was administered at dose of 3.13 mg/kg; type: functional
Mus musculus [19] = test: Change in weight of P388 lymphocytic leukemia infected mice was determined when the compound was administered at dose of 6.25 mg/kg; type: functional
Mus musculus [20] = test: % T/C value was measured against Murine P388 Lymphocytic Leukemia cells in CDF1 mice at the dose 25 mg/kg; toxic; type: functional, organism-based; parameters: dose 25 mg/kg
Mus musculus [21] = test: % T/C value was measured against Murine P388 Lymphocytic Leukemia cells in CDF1 mice at the dose 50 mg/kg; type: functional
Mus musculus [22] = test: Change in weight of P388 lymphocytic leukemia infected mice was determined when the compound was administered at dose of 50 mg/kg; type: functional
Mus musculus [23] = test: % T/C value was measured against Murine P388 Lymphocytic Leukemia cells in CDF1 mice at the dose 100 mg/kg; type: functional
Mus musculus [24] = test: Change in weight of P388 lymphocytic leukemia infected mice was determined when the compound was administered at dose of 100 mg/kg; type: functional
Mus musculus [25] = test: % T/C value was measured against Murine P388 Lymphocytic Leukemia cells in CDF1 mice at the dose 200 mg/kg; type: functional
Mus musculus [26] = test: Change in weight of P388 lymphocytic leukemia infected mice was determined when the compound was administered at dose of 200 mg/kg; type: functional

SMILES | T/C (Mus musculus [4]) | T/C (Mus musculus [5]) [%] | T/C (Mus musculus [6]) | T/C (Mus musculus [7]) [%] | T/C (Mus musculus [8]) [%] | T/C (Mus musculus [10]) [%] | Weight change (Mus musculus [16]) | Weight change (Mus musculus [17]) | Weight change (Mus musculus [18]) [g] | Weight change (Mus musculus [19]) [g] | T/C (Mus musculus [21]) [%] | Weight change (Mus musculus [22]) | T/C (Mus musculus [23]) [%] | Weight change (Mus musculus [24]) [g] | also measured
COc1ccc2c(c1)CCn1c(C)c(COC(=O)NC(C)C)c(COC(=O)NC(C)C)c1-2 | Toxic | 153 | Toxic | 153 | 142 | 136 | -3 g | -5.6 g | -1.1 | -2.1 |  |  |  |  | T/C (Homo sapiens [1]): -100%; T/C (Homo sapiens [2]): inactive; T/C (Homo sapiens [3]): 55%; T/C (Mus musculus [9]): Toxic; T/C (Mus musculus [11]): 180%; T/C (Mus musculus [12]): -27%; T/C (Mus musculus [13]): 152%; T/C (Mus musculus [14]): inactive; T/C (Mus musculus [15]): 48%
CCNC(=O)OCc1cn2c(c1COC(=O)NCC)-c1ccccc1CC2C (stereo not drawn) | Toxic | 185 | Toxic |  | 142 | 141 | -6 g |  | -1.3 | -1.2 |  |  |  |  | T/C (Mus musculus [20]): Toxic; T/C (Mus musculus [9]): Toxic
CNC(=O)OCc1c(COC(=O)NC)c(-c2ccccc2)n(C)c1C | Toxic | 130 |  | 145 |  | 135 | -3.3 g | -3.9 g |  | -2.5 | 90 | -4.6 g |  |  | 
CNC(=O)OCc1c(COC(=O)NC)c(-c2ccc(OC)cc2)n(C)c1C | Toxic | 138 |  | 145 |  | 135 | -3.2 g | -3.4 g |  | -2.4 | 152 | -4.4 g |  |  | 
CNC(=O)OCc1cn2c(c1COC(=O)NC)-c1ccccc1CC2C (stereo not drawn) | Toxic | 153 | Toxic | 169 | 138 | 138 | -4.4 g | -4.8 g | -0.3 | -1 | 79 | -5 g |  |  | 
CC1Cc2ccccc2-c2c(COC(=O)NC3CCCCC3)c(COC(=O)NC3CCCCC3)cn21 (stereo not drawn) | Toxic | 178 | Toxic | 182 |  |  | -4.3% | -4.6% |  |  | 101 | -6.4% |  |  | 
CNC(=O)OCc1c(COC(=O)NC)c(-c2ccc(OC)cc2)n2c1CCC2 |  | 132 | Toxic | 132 |  |  | -3.2 g | -3.3 g |  |  | 131 | -4 g | 125 | -4 | 
COc1ccc2c(c1)CCn1c(C)c(COC(=O)NC(=O)NC3CCCCC3)c(COC(=O)NC(=O)NC3CCCCC3)c1-2 |  | 134 | Toxic | 137 |  | 137 | -4.4 g | -6.7 g |  | -3.3 | 151 | -6.5 g | 92 | -6 | 
CNC(=O)OCc1c(COC(=O)NC)c(-c2ccccc2)n2c1CCC2 |  |  |  |  |  |  |  |  |  |  | 124 | -2.1 g | 124 | -1.8 | T/C (Mus musculus [25]): 60%; Weight change (Mus musculus [26]): -3.5 g
